In PubChem BioAssay AID1963834 (Molecular Pharmacology Branch, DTP, NCI, 2024):

Tested on: 873145-292-R-J1-PDC complex spheroid viability
Test: Anticancer human tumor 873145-292-R-J1-PDC patient-derived renal clear cell carcinoma cell line growth inhibition [POLQ]
Settings: for IC50: curve of first compound; for viability, T/C: stronger effect = lower value
Experimental: Multicellular complex tumor spheroid response to Polymerase (POL) inhibitors (novobiocin, ART-558, RP6685) in combination with a variety of drugs and investigational agents in selected tumor cell lines
The POL inhibitors (novobiocin, ART-558, and RP6685) were evaluated both individually and in combination with standard of care and investigational anticancer small molecules within a complex spheroid model of solid tumors. . Complex spheroids include a stromal component modeled by human endothelial cells (HUVEC) and fibroblasts modeled by human mesenchymal stem cells (MSCs). The concentration ranges selected for each drug and investigational agent were based upon clinically achievable concentrations if the clinical Cmax of the agent was known.
Compounds. The drugs and investigational agents: novobiocin (NSC847541), ART-558 (NSC835418), RP-6685 (NSC848927), peposertib (NSC802822), ceralasertib (NSC780249), elimusertib (NSC800525), camonsertib (NSC841442), AZD-1390 (NSC803789), olaparib (NSC753686), talazoparib (NSC767125), rucaparib (NSC756644), sotorasib (NSC818433), MRTX-1133 (NSC836407), SN-38 (NSC673596), topotecan (NSC609699), epotoside (NSC141540), doxorubicin (NSC123127), gemcitabine (NSC613327), 5-fluorouracil (NSC19893), paclitaxel (NSC125973), vemurafenib (NSC761431), MSA-2 (NSC828583), SN-011 (NSC837082), adavosertib (NSC754352), prexasertib (NSC758257), carboplatin (NSC241240) and oxaliplatin (NSC266046), were obtained from the National Cancer Institute (NCI) Developmental Therapeutics Program Chemical Repository (21). The FDA-approved anticancer drug set is available from the Developmental Therapeutics Program at https://dtp.cancer.gov/organization/dscb/obtaining/. […] The stock solutions were prepared in dimethyl sulfoxide (DMSO, Sigma-Aldrich, St. Louis, MO, cat. D2650), except for the platinum compounds which were prepared in saline (Quality Biological, Gaithersburg, MD, cat. 114-055-101), at 800-fold the tested concentration and stored at -70 degrees C prior to their use. All drugs and investigational agents were tested over a range starting from a high concentration at or near the clinical Cmax and decreasing in half-log increments. If the clinical Cmax for an agent had not been determined, the highest concentration tested was 10 microM, except for SN-38, which was tested at a high concentration of 1 microM.
Cell Culture. All cells were maintained in an incubator at 37 degrees C and 5% CO2 with 95% humidity. The PDC lines were cultured according to standard operating procedures established by the NCI PDMR (https://pdmr.cancer.gov). Table 3 of the manuscript, lists the cell lines along with the number of the three cell types plated to form the mct-spheroids and media for tumor cell growth. After thawing, all PDC lines, except 997537-175-T-J1-PDC and 415267-285-R-J2-PDC, were cultured in Matrigel-coated flasks prepared with a working solution of 1X Ham's F-12 nutrient mix, without supplementation (Thermo Fisher Scientific, cat. 11765054), 100 U/mL penicillin-streptomycin (Thermo Fisher Scientific, cat. 15140122), and 2.5% Matrigel (Corning Inc., Corning, NY, cat. 354248) for the first three passages. The two PDC lines 997537-175-T-J1-PDC and 415267-285-R-J2-PDC were cultured on uncoated flasks. The 857933-349-R-J2-PDC line was cultured in 6C/Colon 1B media containing advanced DMEM/F-12 (Thermo Fisher Scientific, cat. 12634028), 10 mM HEPES (Thermo Fisher Scientific, cat. 15630080), 1X GlutaMAX supplement (Thermo Fisher Scientific, cat. 35050061), 0.1 mg/mL primocin (InvivoGen, San Diego, CA, cat. ant-pm-2), 10% defined fetal bovine serum, heat inactivated (HyClone Laboratories Inc., Logan, UT, cat. SH30070.03HI), 50% L-WRN conditioned media (ATCC, cat. CRL-3276), 1.25 mM N-Acetyl-L-cysteine (Sigma-Aldrich, cat. A9165), 10 mM nicotinamide (Sigma-Aldrich, cat. N0636), 1X B-27 supplement (Thermo Fisher Scientific, cat. 17504044), 1X N-2 supplement (Thermo Fisher Scientific, cat. […]
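Also: spheroids exposed to compounds for 7 days before viability readout.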
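For viability, T/C in this document: luminescence signal used as surrogate for viable cell content; 100% = DMSO vehicle control viability.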

Structure (SMILES): CCc1cc2c(N3CCc4c(cc(Cn5ccnc5)cc4-c4cn(C)nc4C(F)(F)F)C3=O)ccnc2c(OC)n1 + Cc1cccc(N(C)C(=O)C2C(O)CCN2c2nc(C)cc(C(F)(F)F)c2C#N)c1
- IC50 (second compound 0.0316 µM): > 10 µM
- IC50 (second compound 0.1 µM): > 10 µM
- IC50 (second compound 0.316 µM): > 10 µM
- IC50 (second compound 1 µM): > 10 µM
- IC50 (second compound 3.16 µM): > 10 µM
- IC50 (second compound 10 µM): > 10 µM
- viability, T/C (second compound 0.0316 µM, first compound 0.0316 µM): 92.1%
- viability, T/C (second compound 0.0316 µM, first compound 0.1 µM): 114%
- viability, T/C (second compound 0.0316 µM, first compound 0.316 µM): 100%
- viability, T/C (second compound 0.0316 µM, first compound 1 µM): 94.6%
- viability, T/C (second compound 0.0316 µM, first compound 3.16 µM): 88%
- viability, T/C (second compound 0.0316 µM, first compound 10 µM): 83.2%
- viability, T/C (second compound 0.1 µM, first compound 0.0316 µM): 99.6%
- viability, T/C (second compound 0.1 µM, first compound 0.1 µM): 118%
- viability, T/C (second compound 0.1 µM, first compound 0.316 µM): 88.9%
- viability, T/C (second compound 0.1 µM, first compound 1 µM): 95%
- viability, T/C (second compound 0.1 µM, first compound 3.16 µM): 91.6%
- viability, T/C (second compound 0.1 µM, first compound 10 µM): 78.4%
- viability, T/C (second compound 0.316 µM, first compound 0.0316 µM): 105%
- viability, T/C (second compound 0.316 µM, first compound 0.1 µM): 101%
- viability, T/C (second compound 0.316 µM, first compound 0.316 µM): 82.2%
- viability, T/C (second compound 0.316 µM, first compound 1 µM): 94.6%
- viability, T/C (second compound 0.316 µM, first compound 3.16 µM): 94.6%
- viability, T/C (second compound 0.316 µM, first compound 10 µM): 83.7%
- viability, T/C (second compound 1 µM, first compound 0.0316 µM): 90.5%
- viability, T/C (second compound 1 µM, first compound 0.1 µM): 87.3%
- viability, T/C (second compound 1 µM, first compound 0.316 µM): 91.7%
- viability, T/C (second compound 1 µM, first compound 1 µM): 93.4%
- viability, T/C (second compound 1 µM, first compound 3.16 µM): 89.7%
- viability, T/C (second compound 1 µM, first compound 10 µM): 78%
- viability, T/C (second compound 3.16 µM, first compound 0.0316 µM): 88.2%
- viability, T/C (second compound 3.16 µM, first compound 0.1 µM): 104%
- viability, T/C (second compound 3.16 µM, first compound 0.316 µM): 85%
- viability, T/C (second compound 3.16 µM, first compound 1 µM): 91.3%
- viability, T/C (second compound 3.16 µM, first compound 3.16 µM): 80.1%
- viability, T/C (second compound 3.16 µM, first compound 10 µM): 90.1%
- viability, T/C (second compound 10 µM, first compound 0.0316 µM): 90.1%
- viability, T/C (second compound 10 µM, first compound 0.1 µM): 97.3%
- viability, T/C (second compound 10 µM, first compound 0.316 µM): 85.3%
- viability, T/C (second compound 10 µM, first compound 1 µM): 84.5%
- viability, T/C (second compound 10 µM, first compound 3.16 µM): 81.2%
- viability, T/C (second compound 10 µM, first compound 10 µM): 90.3%
